This note sets out measurements from paper PMC8306578, “[^68Ga]Ga-DFO-c(RGDyK): Synthesis and Evaluation of Its Potential for Tumor Imaging in Mice” (International Journal of Molecular Sciences, 2021).

The test system of one data set is U-87 MG cells. Description: Cell uptake assay in U-87 MG cells. In kind it is cell-based, human. Particulars: 7 nM tracer, 500-fold excess (3.5 µM) inhibitor, 30-90 min, 37 °C. The protocol: (§1) Human glioblastoma multiforme U-87 MG cells (ATCC, Manassas, VA, USA) were cultured in Dulbecco’s Modified Eagle Medium (Merck, Darmstadt, Germany) supplemented with 10% fetal bovine serum, 0.1 mM non-essential amino acids, and 1.0 mM sodium pyruvate at 37 °C in a 5% carbon dioxide humidified incubator. Human melanoma cell lines M21 (fluorescence-activated cell sorting selected clone, which stably express αvβ3 integrin; αvβ3 integrin-positive) and M21-L (αvβ3 integrin-negative) originated from prof. Cheresh, Departments of Immunology and Vascular Biology, The Scripps Research Institute, La Jolla, CA, USA and were a kind gift of prof. Decristoforo, Department of Nuclear Medicine, Medical University Innsbruck, Austria. Both M21 and M21-L cells were cultured in Dulbecco’s Modified Eagle Medium (Merck, Darmstadt, Germany) supplemented with 10% fetal bovine serum. All the cells were subcultured and used for experiments at a confluency of 70–90%. Cell uptake assays were performed in 24-well plates cell at cellular confluency of 70–90%. […] Afterwards, the 24-well plates were rinsed with PBS and the cells were lysed by 0.1 M NaOH and measured for radioactivity in the gamma counter. The uptake of [^68Ga]Ga-DFO-c(RGDyK) was calculated as the mean of the percentage of the applied dose ± standard deviation.

For a further data set, the system named is U-87 MG tumor. Description: Static PET/CT imaging in U-87 MG tumor-bearing Balb/c nude mice. Conditions: U-87 MG tumor mice, 30 and 90 min p.i. In kind it is in vivo, mouse. The protocol:
(§2) The animal studies were performed using female 8–10-week-old Balb/c and athymic Balb/c nude mice (Envigo, Horst, The Netherlands). The animals were acclimatized to laboratory conditions for 1 week prior to experimental use and housed in a specific-pathogen-free animal facility with free access to animal chow and water. During the experiments, general health and body weight of the animals were monitored. The number of animals was reduced as much as possible (n = 3 per group and time point) for all in vivo experiments. […]
(§3) For animal tumor models, athymic Balb/c nude mice were subcutaneously injected in the right flank with 5 × 10^6 U-87 MG cells mixed with Matrigel Matrix (Corning, NY, USA) at a 1:1 ratio or in the right and left flank with 5 × 10^6 M21 and M21-L cells. Tumor growth was continuously monitored by caliperation. […]
(§4) PET/CT imaging of the experimental animals was performed with an Albira PET/SPECT/CT small animal imaging system (Bruker Biospin Corporation, Woodbridge, CT, USA). […] After reconstruction, the acquired data was viewed and analyzed with the appropriate software (PMOD software, PMOD Technologies Ltd., Zurich, Switzerland and VolView software, Kitware, Clifton Park, NY, USA).

The next data set concerns M21 cells. Description: Cell uptake assay in M21 (αvβ3-positive) cells. In kind it is cell-based, human. Particulars: 7 nM tracer, 500-fold excess (3.5 µM) inhibitor, 60 min, 37 °C. The protocol:
as §1

The subject of the next data set is M21 tumor. Description: Static PET/CT imaging in M21 (αvβ3-positive) xenografted Balb/c nude mice. In kind it is in vivo, mouse. Particulars: αvβ3 integrin-positive (M21) tumor tissue, 30 and 90 min p.i. The protocol: as §2, §3, §4
Data set [1] is classed as physicochemical. Particulars: pH 7.4. The protocol:
Aliquots of 50 μL were added to 450 μL PBS and 500 μL octanol, and the mixture was vigorously vortexed for 20 min at 1500 rpm. The aqueous and organic solvents were separated by centrifugation (2 min at 2000× g), and 50 μL aliquots of both layers were collected and measured in a gamma counter (PerkinElmer, Waltham, MA, USA). Log p values were calculated from the obtained data in Microsoft Office Excel 2010 (Microsoft, Redmond WA, USA) (mean of n = 6).

Another data set deals with M21-L tumor. Description: Static PET/CT imaging in M21-L (αvβ3-negative) xenografted Balb/c nude mice. In kind it is in vivo, mouse. Particulars: αvβ3 integrin-negative (M21-L) tumor tissue, 30 and 90 min p.i. The protocol: as §2, §3, §4
The conditions of data set [2]: mouse, in vivo. The protocol: The animal studies were performed using female 8–10-week-old Balb/c and athymic Balb/c nude mice (Envigo, Horst, The Netherlands). The animals were acclimatized to laboratory conditions for 1 week prior to experimental use and housed in a specific-pathogen-free animal facility with free access to animal chow and water. During the experiments, general health and body weight of the animals were monitored. The number of animals was reduced as much as possible (n = 3 per group and time point) for all in vivo experiments. The tracer injection as well as small animal imaging was carried out under 2% isoflurane anesthesia (FORANE, Abbott Laboratories, Abbott Park, IL, USA) to minimize animal suffering and to prevent animal motion. […] The animals were sacrificed by cervical dislocation at 30 and 90 min post-injection (p.i.). Organs and tissues of interest (blood, spleen, pancreas, stomach, intestines, kidneys, liver, heart, lung, muscle, bone, and tumor) were collected, weighed, and measured in the gamma counter. The results were expressed as percentage of injected dose per gram organ (% ID/g).

On the set-up of data set [3]: dose or concentration left out as unconfirmed. Particulars: mouse, in vivo. The protocol: as §2, §3
The animals were sacrificed by cervical dislocation at 30 and 90 min post-injection (p.i.). Organs and tissues of interest (blood, spleen, pancreas, stomach, intestines, kidneys, liver, heart, lung, muscle, bone, and tumor) were collected, weighed, and measured in the gamma counter. The results were expressed as percentage of injected dose per gram organ (% ID/g).

Like-named read-outs stand apart in the source and are kept apart here.

With `CC(=O)N(O)CCCCCNC(=O)CCC(=O)N(O)CCCCCNC(=O)CCC(=O)N(O)CCCCCNC(=S)Nc1ccc(NC(=S)NCCCC[C@@H]2NC(=O)[C@@H](Cc3ccc(O)cc3)NC(=O)[C@H](CC(=O)O)NC(=O)CNC(=O)[C@H](CCCNC(=N)N)NC2=O)cc1` [[^68Ga]Ga-DFO-c(RGDyK), metal not drawn], the “Blocking of cell uptake by excess cold NODAGA-c(RGDyK)” value in the data set on U-87 MG cells is listed as “could be blocked with NODAGA-c(RGDyK) by about half”; in the data set on M21 cells it was “could only be blocked for the αvβ3-positive cells (M21)”. Moreover, the PET/CT tumor visualization result in the data set with U-87 MG tumor is on record as “clearly visualizing the tumor”. The PET/CT tumor uptake entry with M21 tumor was “specific uptake of the radiotracer”; in the data set on M21-L tumor it was “no uptake was observed”. Also, in data set [1], the logP (commonly the decadic logarithm of the partition coefficient of the neutral form, usually between octanol and water) is -2.01 ± 0.08. Further, the tissue uptake (commonly the percentage of the injected dose found per gram of tissue) at 1.5 h in data set [2] (Activity concentration in intestines) was 1.99 ± 0.01 %ID/g; in data set [2] (Activity concentration in kidneys), 5.31 ± 0.12 %ID/g; in data set [2] (Activity concentration in stomach), 1.78 ± 0.05 %ID/g; in data set [3], 1.54 ± 0.56 %ID/g. Also, the tissue uptake at 0.5 h in data set [3] was determined as 3.03 ± 0.62 %ID/g.
